# Test results taken from patent publication US5091305A, “Bile acid sulfate sulfatase, process for its preparation and method for assaying bile acid” (Marukin Shoyu Co., Ltd., priority 1988, dated 1992).
# Where two headings read alike, the source gives them in different places.
# Tests used:
# [1] = tested on: bile acid sulfate sulfatase; test: Inhibition and activation of the present Enzyme by additives; format: biochemical, Pseudomonas testosteroni
# Description: (§1) The physicochemical properties of the present Enzyme are further described below. The activity of the present Enzyme is measured as follows. That is, into a quartz cell are placed 0.1 ml of 2.5 mM aqueous solution of lithocholic acid 3α-sulfate (Sigma), 0.2 ml of 15 mM aqueous solution of β-NAD (Oriental Yeast), 1.0 ml of 0.1M tris-hydrochloric acid buffer solution (pH 8.0) and 1.55 ml of distilled water, and after equilibrating at 30° C., 0.05 ml of β-hydroxysteroid dehydrogenase (Sigma) solution (10 U/ml) and 0.1 ml of a solution of the present Enzyme are sequentially added thereto and the reaction is effected at 30° C., and the increase of the absorbance at 340 nm in the initial stage of the reaction is determined. Under these conditions, the enzyme activity producing 1 μmol of NADH per minute is defined as 1 unit.
# [2] = tested on: bile acid sulfate sulfatase; test: Activity of the present Enzyme on substrates (coupled β-hydroxysteroid dehydrogenase/NADH assay, absorbance at 340 nm); format: biochemical, Pseudomonas testosteroni; conditions: for Relative activity (substrate specificity): lithocholic acid 3α-sulfate = 100
# Description: as §1
# (b) Substrate specificity: Acting on 3α-sulfates of nonconjugated bile acids, and 3α-sulfates each of glycine-conjugated and taurine-conjugated bile acids.
# [3] = additive 2 mM, no additive = 100
# [4] = additive 1 mM, no additive = 100
# [5] = effect of the substance on the present Enzyme
Compound,"Relative Activity [1, 3] [%]",Relative activity (substrate specificity) [2] [%],further results
O=S(=O)([O-])[O-].[Zn+2] [Zinc sulfate],95,–,–
c1cnc2c(c1)ccc1cccnc12 [o-Phenanthroline],–,–,"Relative Activity [1, 4]: 37%; Inhibition and activation (in words) [1, 5]: inhibited"
[N-]=[N+]=[N-] [Sodium azide],–,–,"Relative Activity ([1]; additive 10 mM, no additive = 100): 100%"
4-Nitrocatechol sulfate,–,0,–
[Cl][Cd][Cl] [Cadmium chloride],98,–,–
[Cl][Mn][Cl] [Manganese chloride],111,–,"Inhibition and activation (in words) [1, 5]: Activated"
O=C(O)CI [Monoiodoacetic acid],–,–,Inhibition and activation (in words) [1]: Hardly inhibited; Relative Activity ([1]; 2000 µM): 98%
[Cl][Hg][Cl] [Mercuric chloride],71,–,"Relative Activity [1, 4]: 90%"
C[C@H](CCC(=O)O)[C@H]1CC[C@H]2[C@@H]3CC=C4C[C@@H](OS(=O)(=O)O)CC[C@]4(C)[C@H]3CC[C@]12C [3β-Hydroxy-5-cholenic acid 3-sulfate],–,0,–
"c1ccc(-c2ccccn2)nc1 [α,α'-Dipyridyl]",–,–,"Relative Activity [1, 4]: 97%"
C[C@H](CCC(=O)O)[C@H]1CC[C@H]2[C@@H]3[C@H](O)C[C@@H]4C[C@H](OS(=O)(=O)O)CC[C@]4(C)[C@H]3C[C@H](O)[C@]12C [Cholic acid 3α-sulfate],–,238,–
C[C@H](CCC(=O)O)[C@H]1CC[C@H]2[C@@H]3CC[C@@H]4C[C@H](OS(=O)(=O)O)CC[C@]4(C)[C@H]3CC[C@]12C [Lithocholic acid 3α-sulfate],–,100,Km ([2]; Km of the present Enzyme to the substrate): 6 µM
O=C(O)CN(CCN(CC(=O)O)CC(=O)O)CC(=O)O [EDTA],–,–,"Relative Activity [1, 4]: 38%; Relative Activity ([1]; additive 5 mM, no additive = 100): 25%; Inhibition and activation (in words) [1, 5]: inhibited"
O=C(O)c1cc[c]([Hg][Cl])cc1 [p-Chloromercuribenzoate],–,–,"Relative Activity ([1]; additive 0.2 mM, no additive = 100): 98%; Inhibition and activation (in words) [1, 5]: Hardly inhibited"
[F-].[Na+] [Sodium fluoride],98,–,–
[Cl][Co][Cl] [Cobalt chloride],92,–,–
O=S(=O)([O-])[O-].[Mg+2] [Magnesium sulfate],101,–,–
C[C@H](CCC(=O)NCC(=O)O)[C@H]1CC[C@H]2[C@@H]3CC[C@@H]4C[C@H](OS(=O)(=O)O)CC[C@]4(C)[C@H]3CC[C@]12C [Glycolithocholic acid 3α-sulfate],–,11,–
O=S(=O)([O-])[O-].[Cu+2] [Copper sulfate],94,–,–
C[C@H](CCC(=O)NCCS(=O)(=O)O)[C@H]1CC[C@H]2[C@@H]3CC[C@@H]4C[C@H](OS(=O)(=O)O)CC[C@]4(C)[C@H]3CC[C@]12C [Taurolithocholic acid 3α-sulfate],–,2,–
